Experimental data taken from US20050238635A1, “Use of hyrogen peroxide producting enzyme for treatment of otitis media” (priority 2002, published 2005).

Assays:
M catarrhalis (Mcat-res) = assay: broth test of alpha 4 co-cultured with resistant M catarrhalis (Mcat-res), with amitrole; assay type: cell-based; details: amitrole 50 mM in broth, 7 hours, 37° C.
Method: Amitrole is an irreversible catalase inhibitor [12]. If an increased or more efficient catalase production was involved in the development of resistance of M cararrhalis to an isolate of AHS. This resistance would be reverted by addition of amitrole. In broth tests with alpha 4 together with M catarrhalis in 5 ml broth, 50 mM (0.1 ml) of amitrole (3-amino-1,2,4-triazole), was added into the solution and incubated for 7 hours at 37° C. in air with intermittent shaking. The isolate of M catarrhalis (Mcat-res) had developed resistance against alpha 4 after co-culturing in broth. CFU counts were calculated at start and after 7 hours of incubation. Alpha 4 with M catarrhalis in broth without amitrole, broth and M catarrhalis alone and M catarrhalis alone with amitrole in broth served as controls.

[1] = trypsin tested together with hydrogen peroxide for catalase effect; assay type: biochemical
H influenzae = assay: filtrate test: inhibitory effect of cell-free PBS filtrate of AHS on growth (CFU) of H influenzae; assay type: cell-based
Method: Numbers of colony forming units (CFU) were counted after serial dilutions in PBS and growth over night at 37° C. in air. Identification of the bacteria was based on different morphology of the isolates growing on the agar plates. AHS and M catarrhalis were grown on agar plates with 7% human blood and McLeod plates were used when H influenzae was assayed.
To achieve a filtrate with inhibitory activity, about 10^6 CFU of AHS were inoculated in 4 vials, each containing 15 ml of broth and incubated for 12 hours. The suspension was then centrifuged at 3000 rpm for 15 min and the supernatant was thrown away. The bacteria were transferred into one vial and two ml of phosphate buffered saline (PBS) was added and incubated at 37° C. for 5 hours. The suspension was then passed through a 0.2 μm sterile filter to remove the bacteria. Otitis media pathogens (0.1 ml) were then added to the filtrate (1 ml) and incubated at 37° C. The controls were incubated in fresh PBS.
Catalase is a specific enzyme catalyzing the conversion of H2O2 into O2 and H2O. This reaction proceeds rapidly. Purified catalase from human erythrocytes (>30.000U/mg) was used in the assays. The assays were performed as described above in the filtrate tests, with the exception that catalase, 1000 U/ml (=0.01 ml), was added to the vials with filtrate and PBS. […]

Nc1nc[nH]n1 [amitrole, 3-amino-1,2,4-triazole]
sensitivity of resistant M catarrhalis to inhibition of alpha 4 when amitrole added (M catarrhalis (Mcat-res)): became sensitive

Trypsin
catalase effect [1]: no catalase effect
reversal of the inhibitory effect of the cell-free filtrate of alpha 89 (H influenzae; trypsin 2.5 mg/ml, filtrate incubated with H influenzae): only slightly reverse

B1: Catalase: Purified catalase from human erythrocytes; enzyme catalyzing the conversion of H2O2 into O2 and H2O (protein, UniProt P04040 2-527, looked up)
Catalase: ADSRDPASDQMQHWKEQRAAQKADVLTTGAGNPVGDKLNVITVGPRGPLLVQDVVFTDEMAHFDRERIPERVVHAKGAGAFGYFEVTHDITKYSKAKVFEHIGKKTPIAVRFSTVAGESGSADTVRDPRGFAVKFYTEDGNWDLVGNNTPIFFIRDPILFPSFIHSQKRNPQTHLKDPDMVWDFWSLRPESLHQVSFLFSDRGIPDGHRHMNGYGSHTFKLVNANGEAVYCKFHYKTDQGIKNLSVEDAARLSQEDPDYGIRDLFNAIATGKYPSWTFYIQVMTFNQAETFPFNPFDLTKVWPHKDYPLIPVGKLVLNRNPVNYFAEVEQIAFDPSNMPPGIEASPDKMLQGRLFAYPDTHRHRLGPNYLHIPVNCPYRARVANYQRDGPMCMQDNQGGAPNYYPNSFGAPEQQPSALEHSIQYSGEVRRFNTANDDNVTQVRAFYVNVLNEEQRKRLCENIAGHLKDAQIFIQKKAVKNFTEVHPDYGSHIQALLDKYNAEKPKNAIHTFVQSGSHLAAREKANL
reversal of the inhibitory effect of the cell-free filtrate of AHS (H influenzae; catalase 1000U/ml, filtrate of alpha 89 incubated with H influenzae): completely reverse
